# Measured values published in patent US20230072683A1, “PYRIDO-PYRIMIDIN DERIVATIVES AND PHARMACEUTICAL COMPOSITION, FOR USE IN PREVENTING OR TREATING PI3 KINASE RELATED DISEASES, COMPRISING SAME AS ACTIVE INGREDIENT” (BORYUNG PHARMACEUTICAL CO., LTD, priority 2019, published 2023).
# Where two headings read alike, the source gives them in different places.
# Assays:
# [1] = target: PI3K-δ (PI3K(p1108/p857) (h)) (Homo sapiens, UniProt O00329); assay: Evaluation of inhibitory activity against PI3K-δ (HTRF kinase assay); format: biochemical; details: for inhibition at 0.01 µM: compound concentration 0.01 μM, read-out: EXP_VALUE(% Inhibition) PI3K-δ 0.01 μM; for inhibition at 0.1 µM: read-out: EXP_VALUE(% Inhibition) PI3K-δ 0.1 μM
# Chain of PI3K-δ (PI3K(p1108/p857) (h)) (O00329 whole entry, the tested form may be a part): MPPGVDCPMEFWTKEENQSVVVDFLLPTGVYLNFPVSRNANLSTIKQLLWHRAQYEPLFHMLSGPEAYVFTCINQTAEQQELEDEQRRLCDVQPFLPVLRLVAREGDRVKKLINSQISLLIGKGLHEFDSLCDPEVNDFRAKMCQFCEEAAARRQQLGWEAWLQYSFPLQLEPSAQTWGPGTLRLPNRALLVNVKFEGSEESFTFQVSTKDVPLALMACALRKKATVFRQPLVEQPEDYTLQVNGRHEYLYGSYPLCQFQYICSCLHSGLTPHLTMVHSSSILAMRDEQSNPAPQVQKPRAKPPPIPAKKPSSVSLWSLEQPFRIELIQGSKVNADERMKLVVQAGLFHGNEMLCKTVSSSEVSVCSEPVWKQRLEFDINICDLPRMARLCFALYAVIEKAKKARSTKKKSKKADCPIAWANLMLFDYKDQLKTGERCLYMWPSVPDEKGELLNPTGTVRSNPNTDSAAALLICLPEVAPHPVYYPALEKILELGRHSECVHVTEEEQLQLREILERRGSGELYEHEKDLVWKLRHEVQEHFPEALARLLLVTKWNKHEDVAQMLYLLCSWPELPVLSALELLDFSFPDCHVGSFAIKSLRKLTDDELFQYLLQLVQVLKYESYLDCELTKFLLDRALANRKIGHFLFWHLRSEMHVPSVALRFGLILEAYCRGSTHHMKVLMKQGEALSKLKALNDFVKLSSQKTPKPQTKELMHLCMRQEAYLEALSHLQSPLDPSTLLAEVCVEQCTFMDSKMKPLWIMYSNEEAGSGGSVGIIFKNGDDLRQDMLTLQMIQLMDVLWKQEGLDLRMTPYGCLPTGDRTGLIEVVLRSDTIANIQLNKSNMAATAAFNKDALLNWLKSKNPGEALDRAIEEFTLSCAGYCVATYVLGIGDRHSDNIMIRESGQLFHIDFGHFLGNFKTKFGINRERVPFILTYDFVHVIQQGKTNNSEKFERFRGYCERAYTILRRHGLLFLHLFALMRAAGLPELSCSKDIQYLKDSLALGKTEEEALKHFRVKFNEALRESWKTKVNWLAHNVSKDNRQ
# Chain of PI3K-δ (PI3K(p1108/p857) (h)) (P27986 whole entry partner, the tested form may be a part): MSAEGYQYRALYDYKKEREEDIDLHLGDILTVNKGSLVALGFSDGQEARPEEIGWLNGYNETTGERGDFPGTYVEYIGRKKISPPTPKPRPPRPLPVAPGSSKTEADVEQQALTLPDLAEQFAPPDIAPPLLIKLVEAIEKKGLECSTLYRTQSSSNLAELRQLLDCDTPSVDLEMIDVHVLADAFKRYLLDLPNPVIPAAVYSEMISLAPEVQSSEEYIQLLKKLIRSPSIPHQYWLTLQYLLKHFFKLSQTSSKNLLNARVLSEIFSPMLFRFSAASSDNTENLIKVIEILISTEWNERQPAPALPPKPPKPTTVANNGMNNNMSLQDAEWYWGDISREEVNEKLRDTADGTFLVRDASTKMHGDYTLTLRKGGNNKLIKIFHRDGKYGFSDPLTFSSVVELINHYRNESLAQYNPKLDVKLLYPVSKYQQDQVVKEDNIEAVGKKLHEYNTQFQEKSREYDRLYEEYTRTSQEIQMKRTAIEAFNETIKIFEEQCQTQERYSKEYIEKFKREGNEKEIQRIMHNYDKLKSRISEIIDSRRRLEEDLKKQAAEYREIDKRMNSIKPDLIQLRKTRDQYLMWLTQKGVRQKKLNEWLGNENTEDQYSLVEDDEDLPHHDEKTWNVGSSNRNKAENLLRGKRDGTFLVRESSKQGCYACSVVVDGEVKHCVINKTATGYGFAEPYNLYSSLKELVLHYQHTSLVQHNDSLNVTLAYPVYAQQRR
# How it was run: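 HTRF read-out (665/620 nm ratio ×10000) used Eu-labelled anti-GST, GST-tagged GRP1 PH domain and streptavidin-allophycocyanin after EDTA/PIP3 stop.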
# [2] = target: DNA-PK(h) (Homo sapiens, UniProt P78527); assay: Evaluation of inhibitory activity against DNA-PK (HTRF kinase assay, GST-cMyc-p53 substrate); format: biochemical; details: for inhibition at 0.01 µM: compound concentration 0.01 μM, read-out: EXP_VALUE(% Inhibition) DNA-PK(h) 0.01 μM; for inhibition at 0.1 µM: read-out: EXP_VALUE(% Inhibition) DNA-PK(h) 0.1 μM
# How it was run: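 Human DNA-PK with 50 μM GST-cMyc-p53 substrate; reaction started with Mg/ATP, run 30 min at room temperature, stopped with EDTA. Phospho-Ser15 p53 detected by HTRF (Eu anti-phospho-Ser15, d2 anti-GST), signal = 10000×(Em 665/Em 620).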
inhibition at 0.01 µM [1] [%],inhibition at 0.1 µM ([1]; compound concentration 0.1 μM) [%],inhibition at 0.01 µM [2] [%],inhibition at 0.1 µM ([2]; compound concentration 0.1 μM) [%],inhibition at 0.1 µM ([1]; compound at 0.1 μM) [%],inhibition at 0.1 µM ([2]; compound at 0.1 μM) [%],Compound
56,89,66,94,,,"C[C@H](Nc1ncnc2[nH]ccc(=O)c12)c1c(Cl)c2cccc(-c3cnn(CCN(C)C)c3)c2c(=O)n1-c1ccccc1 [Example 83, (S)-4-((1-(4-chloro-8-(1-(2-(dimethylamino)ethyl)-1H-pyrazol-4-yl)-1-oxo-2-phenyl-1,2-dihydroisoquinolin-3-yl)ethyl)amino)pyrido[2,3-d]pyrimidin-5(8H)-one]"
,,,,84,17,"C[C@H](Nc1ncnc2[nH]ccc(=O)c12)c1c(Cl)c2cccc(S(=O)(=O)c3ccc(Cl)cc3)c2c(=O)n1-c1ccccc1 [Example 393, (S)-4-((1-(4-chloro-8-((4-chlorophenyl)sulfonyl)-1-oxo-2-phenyl-1,2-dihydroisoquinolin-3-yl)ethyl)amino)pyrido[2,3-d]pyrimidin-5(8H)-one]"
99,109,54,89,,,"C[C@H](Nc1ncnc2[nH]ccc(=O)c12)c1c(Cl)c2cccc(-c3ccccc3)c2c(=O)n1-c1ccccc1 [Example 62, (S)-4-((1-(4-chloro-1-oxo-2,8-diphenyl-1,2-dihydroisoquinolin-3-yl)ethyl)amino)pyrido[2,3-d]pyrimidin-5(8H)-one]"
93,101,51,86,,,"COc1ccc(-c2cccc3c(Cl)c([C@H](C)Nc4ncnc5[nH]ccc(=O)c45)n(-c4ccccc4)c(=O)c23)cc1 [Example 64, (S)-4-((1-(4-chloro-8-(4-methoxyphenyl)-1-oxo-2-phenyl-1,2-dihydroisoquinolin-3-yl)ethyl)amino)pyrido[2,3-d]pyrimidin-5(8H)-one]"
15,,15,,,,"C[C@H](Nc1ncnc2[nH]ccc(=O)c12)c1c(Cl)c2cccc(-c3cnoc3)c2c(=O)n1-c1ccccc1 [Example 238, (S)-4-((1-(4-chloro-8-(isoxazol-4-yl)-1-oxo-2-phenyl-1,2-dihydroisoquinolin-3-yl)ethyl)amino)pyrido[2,3-d]pyrimidin-5(8H)-one]"
92,,89,,,,"C[C@H](Nc1ncnc2[nH]ccc(=O)c12)c1c(Cl)c2cccc(-c3ccc(N4CCNCC4)cc3)c2c(=O)n1-c1ccccc1 [Example 148, (S)-4-((1-(4-chloro-1-oxo-2-phenyl-8-(4-(piperazin-1-yl)phenyl)-1,2-dihydroisoquinolin-3-yl)ethyl)amino)pyrido[2,3-d]pyrimidin-5(8H)-one]"
99,97,70,94,,,"Cc1ccc(-c2cccc3c(Br)c([C@H](C)Nc4ncnc5[nH]ccc(=O)c45)n(-c4ccccc4)c(=O)c23)cn1 [Example 17, (S)-4-((1-(4-bromo-8-(6-methylpyridin-3-yl)-1-oxo-2-phenyl-1,2-dihydroisoquinolin-3-yl)ethyl)amino)pyrido[2,3-d]pyrimidin-5(8H)-one]"
,,,,49,18,"CC(C)Oc1cnc(-c2cccc3c(Cl)c([C@H](C)Nc4ncnc5[nH]ccc(=O)c45)n(-c4ccccc4)c(=O)c23)cn1 [Example 376, (S)-4-((1-(4-chloro-8-(5-isopropoxypyrazin-2-yl)-1-oxo-2-phenyl-1,2-dihydroisoquinolin-3-yl)ethyl)amino)pyrido[2,3-d]pyrimidin-5(8H)-one]"
99,102,7,66,,,"C[C@H](Nc1ncnc2[nH]ccc(=O)c12)c1c(Cl)c2cccc(-c3cc(O)cc(F)c3)c2c(=O)n1-c1ccccc1 [Example 108, (S)-4-((1-(4-chloro-8-(3-fluoro-5-hydroxyphenyl)-1-oxo-2-phenyl-1,2-dihydroisoquinolin-3-yl)ethyl)amino)pyrido[2,3-d]pyrimidin-5(8H)-one]"
127,,101,,,,"CNC(=O)c1ccc(-c2cccc3c(Cl)c([C@H](C)Nc4ncnc5[nH]ccc(=O)c45)n(-c4ccccc4)c(=O)c23)cn1 [Example 196, (S)-5-(4-chloro-1-oxo-3-(1-((5-oxo-5,8-dihydropyrido[2,3-d]pyrimidin-4-yl)amino)ethyl)-2-phenyl-1,2-dihydroisoquinolin-8-yl)-N-methylpicolinamide]"
59,,44,,,,"COCc1ncc(-c2cccc3c(Cl)c([C@H](C)Nc4ncnc5[nH]ccc(=O)c45)n(-c4ccccc4)c(=O)c23)cn1 [Example 55, (S)-4-((1-(4-chloro-8-(2-(methoxymethyl)pyrimidin-5-yl)-1-oxo-2-phenyl-1,2-dihydroisoquinolin-3-yl)ethyl)amino)pyrido[2,3-d]pyrimidin-5(8H)-one]"
,,,,7,9,"CC[S@](=N)(=O)c1cccc2c(Cl)c([C@H](C)Nc3ncnc4[nH]ccc(=O)c34)n(-c3ccccc3)c(=O)c12 [Example 436, 4-(((S)-1-(4-chloro-8-((S)-ethylsulfonimidoyl)-1-oxo-2-phenyl-1,2-dihydroisoquinolin-3-yl)ethyl)amino)pyrido[2,3-d]pyrimidin-5(8H)-one]"
,,,,1,29,"C[C@H](Nc1ncnc2[nH]ccc(=O)c12)c1c(Cl)c2cccc(SC3COC3)c2c(=O)n1-c1ccccc1 [Example 418, (S)-4-((1-(4-chloro-8-(oxetan-3-ylthio)-1-oxo-2-phenyl-1,2-dihydroisoquinolin-3-yl)ethyl)amino)pyrido[2,3-d]pyrimidin-5(8H)-one]"
89,,79,,,,"COc1ccc(-c2cccc3c(Cl)c([C@H](C)Nc4ncnc5[nH]ccc(=O)c45)n(-c4ccccc4)c(=O)c23)nc1 [Example 41, (S)-4-((1-(4-chloro-8-(5-methoxypyridin-2-yl)-1-oxo-2-phenyl-1,2-dihydroisoquinolin-3-yl)ethyl)amino)pyrido[2,3-d]pyrimidin-5(8H)-one]"
35,,60,,,,"CCOc1c(OC)ccc(-c2cccc3c(Cl)c([C@H](C)Nc4ncnc5[nH]ccc(=O)c45)n(-c4ccccc4)c(=O)c23)c1F [Example 199, (S)-4-((1-(4-chloro-8-(3-ethoxy-2-fluoro-4-methoxyphenyl)-1-oxo-2-phenyl-1,2-dihydroisoquinolin-3-yl)ethyl)amino)pyrido[2,3-d]pyrimidin-5(8H)-one]"
72,86,53,92,,,"C[C@H](Nc1ncnc2[nH]ccc(=O)c12)c1c(Cl)c2cccc(-c3ccc4[nH]ccc4c3)c2c(=O)n1-c1ccccc1 [Example 73, (S)-4-((1-(4-chloro-8-(1H-indol-5-yl)-1-oxo-2-phenyl-1,2-dihydroisoquinolin-3-yl)ethyl)amino)pyrido[2,3-d]pyrimidin-5(8H)-one]"
17,72,4,48,,,"C[C@H](Nc1ncnc2[nH]ccc(=O)c12)c1c(Cl)c2cccc(-c3ccc(SC(C)(C)C)cc3)c2c(=O)n1-c1ccccc1 [Example 144, (S)-4-((1-(8-(4-(tert-butylthio)phenyl)-4-chloro-1-oxo-2-phenyl-1,2-dihydroisoquinolin-3-yl)ethyl)amino)pyrido[2,3-d]pyrimidin-5(8H)-one]"
93,97,57,91,,,"Cc1ncccc1-c1cccc2c(Cl)c([C@H](C)Nc3ncnc4[nH]ccc(=O)c34)n(-c3ccccc3)c(=O)c12 [Example 110, (S)-4-((1-(4-chloro-8-(2-methylpyridin-3-yl)-1-oxo-2-phenyl-1,2-dihydroisoquinolin-3-yl)ethyl)amino)pyrido[2,3-d]pyrimidin-5(8H)-one]"
12,,6,,,,"C[C@H](Nc1ncnc2[nH]ccc(=O)c12)c1c(Cl)c2cccc(NS(=O)(=O)c3ccc(F)cc3)c2c(=O)n1-c1ccccc1 [Example 303, (S)—N(4-chloro-1-oxo-3-(1-((5-oxo-5,8-dihydropyrido[2,3-d]pyrimidin-4-yl)amino)ethyl)-2-phenyl-1,2-dihydroisoquinolin-8-yl)-4-fluorobenzenesulfonamide]"
81,91,54,92,,,"Cc1cc(F)ccc1-c1cccc2c(Cl)c([C@H](C)Nc3ncnc4[nH]ccc(=O)c34)n(-c3ccccc3)c(=O)c12 [Example 131, (S)-4-((1-(4-chloro-8-(4-fluoro-2-methylphenyl)-1-oxo-2-phenyl-1,2-dihydroisoquinolin-3-yl)ethyl)amino)pyrido[2,3-d]pyrimidin-5(8H)-one]"
19,58,30,74,,,"C[C@H](Nc1ncnc2[nH]ccc(=O)c12)c1c(Cl)c2cccc(NCc3cccnc3)c2c(=O)n1-c1ccccc1 [Example 324, (S)-4-((1-(4-chloro-1-oxo-2-phenyl-8-((pyridin-3-ylmethyl)amino)-1,2-dihydroisoquinolin-3-yl)ethyl)amino)pyrido[2,3-d]pyrimidin-5(8H)-one]"
